Results from ChEMBL document CHEMBL4145636, “Izenamides A and B, Statine-Containing Depsipeptides, and an Analogue from a Marine Cyanobacterium” (J Nat Prod, 2018).
The source made the active and inactive calls. No cut-off for these calls is given here.

Experiments:
HL-60 = assay: Growth inhibition of human HL60 cells up to 10 uM after 72 hrs by MTT assay; assay type: functional, cell-based
HeLa = assay: Growth inhibition of human HeLa cells up to 10 uM after 72 hrs by MTT assay; assay type: functional, cell-based
Cathepsin D = Cathepsin D (Homo sapiens, UniProt P07339); assay: Inhibition of human cathepsin D using GKPILFFRLK(DNP)-D-RNH2) labeled MCA as substrate preincubated for 10 mins followed by substrate addition measured after 1 to 2 hrs by fluorometric method
Cathepsin D, sequence (P07339 65-162 limits assumed): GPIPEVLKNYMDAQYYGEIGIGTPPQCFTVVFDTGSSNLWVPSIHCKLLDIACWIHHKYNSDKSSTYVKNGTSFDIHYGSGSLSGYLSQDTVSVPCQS
Cathepsin D, sequence (P07339 169-412 limits assumed): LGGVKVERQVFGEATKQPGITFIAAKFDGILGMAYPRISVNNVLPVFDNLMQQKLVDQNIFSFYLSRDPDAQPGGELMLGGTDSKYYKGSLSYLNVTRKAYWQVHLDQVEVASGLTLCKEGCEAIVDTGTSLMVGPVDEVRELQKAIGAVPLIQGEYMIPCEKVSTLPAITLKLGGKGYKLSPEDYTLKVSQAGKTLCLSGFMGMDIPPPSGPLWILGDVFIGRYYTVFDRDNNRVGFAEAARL

MCF7 = assay: Growth inhibition of human MCF7 cells up to 10 uM after 72 hrs by MTT assay; assay type: functional, cell-based

Row | Compound | growth inhibition (GI) (HL-60) | growth inhibition (GI) (HeLa) | IC50 (Cathepsin D) [µM] | growth inhibition (GI) (MCF7)
1 | CC[C@H](C)[C@H](NC(=O)C[C@H](O)[C@H](CC(C)C)NC(=O)[C@H](OC(=O)[C@@H](O)C(C)C)C(C)C)C(=O)N[C@@H](C)C(=O)N(C)[C@H](Cc1ccccc1)C(=O)N1CCC[C@H]1C(=O)OC | inactive | inactive | 0.38 | inactive
2 | CC[C@H](C)[C@H](NC(=O)[C@H](OC(=O)[C@@H](O)C(C)C)[C@@H](C)CC)C(=O)NCC(=O)N(C)[C@H](Cc1ccccc1)C(=O)N1CCC[C@H]1C(=O)OC | inactive | inactive | > 10 | inactive
3 | CC[C@H](C)[C@H](NC(=O)C[C@H](O)[C@H](CC(C)C)NC(=O)[C@H](OC(=O)[C@@H](O)C(C)C)[C@@H](C)CC)C(=O)N[C@@H](C)C(=O)N(C)[C@H](Cc1ccccc1)C(=O)N1CCC[C@H]1C(=O)OC | inactive | inactive | 0.27 | inactive
